This is an account of results in patent US20230278998A1, “Compound containing structure of a five-membered heteroaromatic ring, pharmaceutical compositions thereof and applications thereof” (280 Bio, Inc., priority 2022, published 2023).

One may read the IC50 as the concentration needed to halve the response being measured.

Sequence of PARG (389-976) (Q86W56 389-976): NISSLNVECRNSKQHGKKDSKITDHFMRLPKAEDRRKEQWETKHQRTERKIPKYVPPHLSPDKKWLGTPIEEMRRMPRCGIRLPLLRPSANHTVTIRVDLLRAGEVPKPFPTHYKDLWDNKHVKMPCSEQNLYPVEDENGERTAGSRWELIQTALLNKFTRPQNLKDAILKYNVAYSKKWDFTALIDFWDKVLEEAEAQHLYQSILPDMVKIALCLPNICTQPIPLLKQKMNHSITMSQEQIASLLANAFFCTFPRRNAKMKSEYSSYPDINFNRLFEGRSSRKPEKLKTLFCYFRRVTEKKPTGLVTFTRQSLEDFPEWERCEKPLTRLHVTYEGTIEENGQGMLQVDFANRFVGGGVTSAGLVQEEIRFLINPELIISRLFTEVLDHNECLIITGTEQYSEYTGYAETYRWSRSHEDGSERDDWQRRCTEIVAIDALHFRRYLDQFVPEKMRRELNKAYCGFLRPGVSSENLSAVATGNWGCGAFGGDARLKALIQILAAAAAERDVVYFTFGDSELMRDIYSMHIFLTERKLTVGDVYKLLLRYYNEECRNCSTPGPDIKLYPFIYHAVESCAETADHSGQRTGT

One experiment has as its target PARG (389-976) (Homo sapiens (Human), UniProt Q86W56). Put plainly: PARG enzyme inhibition assay (TR-FRET). The experiment is classed as biochemical. The following applies: Table 1, class symbol. As for the experimental part:
PARG Enzyme Inhibition Assay
PARG in vitro assays were conducted in standard 384-well plates in a total volume of 15 μL.
(TR-FRET usually uses a lanthanide donor and a delayed reading to cut background.)
Molecule `Cc1nc(C)c(Cn2c(Cl)c(-c3nnc(C(F)F)s3)c3cc(S(=O)(=O)NC4(C)CC4)ccc32)s1` [Compound 7] came in with a 50% inhibitory concentration (IC50) of less than 100 nM.
The molecule `Cc1nc(C)c(Cn2nc(-c3nnc(C(F)F)s3)c3cc(S(=O)(=O)NC4(CF)CC4)ccc32)s1` [Compound 4] had a concentration for half-maximal inhibition (IC50) of less than 100 nM.
Still for that read-out and setting: as for `Cc1nc(C)c(Cn2cc(-c3nnc(C(F)F)s3)c3cc(S(=O)(=O)NC4(C)CC4)ccc32)s1` [Compound 8], the figure is less than 100 nM; as for `Cc1nnc(-c2nn(Cc3sc(C)nc3C)c3ccc(S(=O)(=O)NC4(C)CC4)cc23)s1` [Compound 2], less than 100 nM.

Staying with this experiment, now noted: Table 2, class symbol.
Consider `Cn1nc(-c2nnc(C(F)F)s2)c2cc(S(=O)(=O)NC3(C#N)CC3)cc(N3CCC(CO)CC3)c21` [Compound 44], for which the IC50 was less than 100 nM.
For the molecule `CC1(NS(=O)(=O)c2ccc3c(c2)c(-c2nnc(C(F)F)s2)nn3Cc2ccc3cn[nH]c3c2)CC1` [Compound 58], the IC50 is less than 100 nM.
Still for that read-out and setting: as for `Cn1nc(-c2nnc(C(F)F)s2)c2cc(S(=O)(=O)NC3(C#N)CC3)cc(N3CCC4(CC3)COC4)c21` [Compound 46], the figure is less than 100 nM; as for `CC(C)C(=O)N1CCN(c2cc(S(=O)(=O)NC3(C)CC3)cc3c(-c4nnc(C(F)F)s4)nn(C)c23)C2CC21` (centres unmarked) [Compound 63], less than 100 nM.
Molecule `CN(C)C(=O)N1CCN(c2cc(S(=O)(=O)NC3(C#N)CC3)cc3c(-c4nnc(C(F)F)s4)nn(C)c23)CC1` [Compound 33] registered a half-maximal inhibitory concentration (IC50) of less than 100 nM.
The same measure, in the same setting: as for `CCC(C)C(=O)N1CCN(c2cc(S(=O)(=O)NC3(C#N)CC3)cc3c(-c4nnc(C(F)F)s4)nn(C)c23)CC1` (centres unmarked) [Compound 50], the figure is less than 100 nM; as for `CC(C)C(=O)N1CC2CCC(C1)N2c1cc(S(=O)(=O)NC2(C)CC2)cc2c(-c3nnc(C(F)F)s3)nn(C)c12` [Compound 62], less than 100 nM.
On the same count and under the same terms, the figure for `Cn1nc(-c2nnc(C(F)F)s2)c2cc(S(=O)(=O)NC3(C)CC3)cc(N3CCN(C(=O)C4CC4)CC3)c21` [Compound 27] is less than 100 nM; for `Cn1nc(-c2nnc(C(F)F)s2)c2cc(S(=O)(=O)NC3(C#N)CC3)cc(N3CCN(C(=O)C(F)(F)F)CC3)c21` [Compound 47] it is less than 100 nM.
Same read-out and setting: as for `Cc1nnc(-c2nn(C)c3c(N4CCN(C(=O)C(C)C)CC4)cc(S(=O)(=O)NC4(C#N)CC4)cc23)s1` [Compound 56], the figure is less than 100 nM; as for `CC(C)C(=O)N1CCN(c2cc(S(=O)(=O)NC3(C#N)CC3)cc3c(-c4nnc(C(F)F)s4)nn(C(F)F)c23)CC1` [Compound 55], less than 100 nM.
As for `CC(C)C(=O)N1CCN(c2cc(S(=O)(=O)NC3(C)CC3)cc3c(-c4nnc(C(F)F)s4)nn(C4CC4)c23)CC1` [Compound 21], the IC50 is less than 100 nM.
Same read-out and setting: the figure for `Cn1nc(-c2nnc(C(F)F)s2)c2cc(S(=O)(=O)NC3(C#N)CC3)cc(N3CCN(S(C)(=O)=O)CC3)c21` [Compound 34] is less than 100 nM; for `Cc1nc(C)c(Cn2nc(-c3nnc(C(F)F)s3)c3cc(S(=O)(=O)NC4(C)CC4)cc(F)c32)s1` [Compound 14] it is less than 100 nM; for `Cn1nc(-c2nnc(C(F)F)s2)c2cc(S(=O)(=O)NC3(C)CC3)cc(N3CCOCC3)c21` [Compound 25] it is less than 100 nM.
Consider `CC(C)C(=O)N1CCN(c2cc(S(=O)(=O)NC3(C#N)CC3)cc3c(-c4nnc(C(F)F)s4)n[nH]c23)CC1` [Compound 18], for which the IC50 is less than 100 nM.
`CC(C)N1CCN(c2cc(S(=O)(=O)NC3(C#N)CC3)cc3c(-c4nnc(C(F)F)s4)nn(C)c23)CC1` [Compound 54]: the concentration for half-maximal inhibition (IC50) is less than 100 nM.
For `Cc1nc(C)c(Cn2nc(-c3nnc(C(F)F)s3)c3cc(S(=O)(=O)NC4(C)CC4)cc(N4CCN(C(=O)C(C)C)CC4)c32)s1` [Compound 19], the 50% inhibitory concentration (IC50) was less than 100 nM.
As for `CC(C)CN1CCN(c2cc(S(=O)(=O)NC3(C#N)CC3)cc3c(-c4nnc(C(F)F)s4)nn(C)c23)CC1` [Compound 49], the IC50 is less than 100 nM.
`CCn1nc(-c2nnc(C(F)F)s2)c2cc(S(=O)(=O)NC3(C)CC3)cc(N3CCN(C(=O)C(C)C)CC3)c21` [Compound 22] returned an IC50 of less than 100 nM.

The same experiment, now with this note: Table 2, value in brackets.
Molecule `Cn1nc(-c2nnc(C(F)F)s2)c2cc(S(=O)(=O)NC3(C#N)CC3)cc(N3CCC4(CC3)COC4)c21` [Compound 46] showed a 50% inhibitory concentration (IC50) of 0.9 nM.
`CC(C)C(=O)N1CCN(c2cc(S(=O)(=O)NC3(C#N)CC3)cc3c(-c4nnc(C(F)F)s4)n[nH]c23)CC1` [Compound 18] displayed an IC50 of 0.9 nM.

The same experiment, now with this note: Table 3, class symbol.
In turn, `CCn1nc(-c2nnc(C(F)F)s2)c2c(F)c(S(=O)(=O)NC3(C)CC3)cc(N3CCN(C(=O)C(C)C)CC3)c21` [Compound 66] had a 50% inhibitory concentration (IC50) of less than 100 nM.
On the same count and under the same terms, as for `C[C@H](N)C(=O)N1CCC(c2cc(S(=O)(=O)NC3(C#N)CC3)cc3c(-c4nnc(C(F)F)s4)nn(C)c23)CC1` [Compound 98], the figure is less than 100 nM; as for `Cn1nc(-c2nnc(C(F)F)s2)c2cc(S(=O)(=O)NC3(C#N)CC3)cc(N3CCC(N4CCCC4=O)CC3)c21` [Compound 139], less than 100 nM; as for `Cn1nc(-c2nnc(C(F)F)s2)c2cc(S(=O)(=O)NC3(C#N)CC3)cc(N3CC4CCC(C3)C4C(C)(C)O)c21` (centres unmarked) [Compound 130], 100 to 1000 nM.
On to `COCCn1nc2c(N3CC4CCC(C3)N4C(=O)C(C)C)cc(S(=O)(=O)NC3(C#N)CC3)cc2c1-c1nnc(C(F)F)s1` [Compound 99], for which the IC50 is less than 100 nM.
`C[C@H]1CN(c2cc(S(=O)(=O)NC3(C#N)CC3)cc3c(-c4nnc(C(F)F)s4)nn(C)c23)CCN1C(=O)N(C)C` [Compound 71] had a concentration for half-maximal inhibition (IC50) of less than 100 nM.
Consider `CC(C)C(=O)N1CC2(C1)CN(c1cc(S(=O)(=O)NC3(C#N)CC3)cc3c(-c4nnc(C(F)F)s4)nn(C)c13)C2` [Compound 77], for which the IC50 was less than 100 nM.
Same read-out and setting: as for `CN(C)C(=O)C1CCN(c2cc(S(=O)(=O)NC3(C#N)CC3)cc3c(-c4nnc(C(F)F)s4)nn(C)c23)CC1` [Compound 90], the figure is less than 100 nM; as for `CC(C)C(=O)N1CCN(c2cc(S(=O)(=O)NC3(C)CC3)cc3c(-c4nnc(C(F)F)s4)nn(C)c23)C[C@@H]1C` [Compound 82], less than 100 nM.
Consider `CC(C)C(=O)N1CCN(c2cc(S(=O)(=O)NC3(C#N)CC3)cc3c(-c4nnc(C(F)F)s4)nn(CC#N)c23)C[C@H]1C` [Compound 115], for which the IC50 was less than 100 nM.
For the molecule `C[C@H](O)C(=O)N1CCC(c2cc(S(=O)(=O)NC3(C#N)CC3)cc3c(-c4nnc(C(F)F)s4)nn(C)c23)CC1` [Compound 114], the half-inhibitory concentration (IC50) was less than 100 nM.
The molecule `CCn1nc(-c2nnc(C(F)F)s2)c2cc(S(=O)(=O)NC3(C#N)CC3)cc(N3C4CCC3CN(C(=O)C(C)C)C4)c21` [Compound 94] returned a concentration for half-maximal inhibition (IC50) of less than 100 nM.
The same measure, in the same setting: as for `Cn1nc(-c2nnc(C(F)F)s2)c2cc(S(=O)(=O)NC3(C#N)CC3)cc(N3CCN(C(=O)C4CCCC4)CC3)c21` [Compound 142], the figure is less than 100 nM.
In turn, `CC(C)C(=O)N1C2C=C(c3cc(S(=O)(=O)NC4(C#N)CC4)cc4c(-c5nnc(C(F)F)s5)nn(C)c34)CC1CC2` (centres unmarked) [Compound 120] yielded a concentration for half-maximal inhibition (IC50) of less than 100 nM.
As for `CC(C)C(=O)N1CCC(c2cc(S(=O)(=O)NC3(C#N)CC3)cc3c(-c4nnc(C(F)F)s4)nn(C)c23)CC1` [Compound 116], the half-inhibitory concentration (IC50) is less than 100 nM.
Same read-out and setting: the figure for `C[C@H](N)C(=O)N1C2C=C(c3cc(S(=O)(=O)NC4(C#N)CC4)cc4c(-c5nnc(C(F)F)s5)nn(C)c34)CC1CC2` (some centres unmarked) [Compound 79] is less than 100 nM.
Still for that read-out and setting: as for `CC(C)C(=O)N1CC=C(c2cc(S(=O)(=O)NC3(C#N)CC3)cc3c(-c4nnc(C(F)F)s4)nn(CC(F)(F)F)c23)CC1` [Compound 107], the figure is less than 100 nM; as for `CC(C)C(=O)N1CCN(c2cc(S(=O)(=O)NC3(C#N)CC3)cc3c(-c4nnc(C(F)F)s4)nn(CC(F)(F)F)c23)C[C@@H]1C` [Compound 108], less than 100 nM.
Still for that read-out and setting: as for `CN(C)C(=O)c1ccc(-c2cc(S(=O)(=O)NC3(C#N)CC3)cc3c(-c4nnc(C(F)F)s4)nn(C)c23)cc1` [Compound 132], the figure is less than 100 nM; as for `Cn1nc(-c2nnc(C(F)F)s2)c2cc(S(=O)(=O)NC3(C#N)CC3)cc(N3CCN(C(=O)C4CCC4)CC3)c21` [Compound 144], less than 100 nM.
Take `CC(C)C(=O)N1C2COCC1CN(c1cc(S(=O)(=O)NC3(C#N)CC3)cc3c(-c4nnc(C(F)F)s4)nn(C)c13)C2` [Compound 86]: the IC50 is less than 100 nM.
In turn, `CCN(C)C(=O)N1CCN(c2cc(S(=O)(=O)NC3(C#N)CC3)cc3c(-c4nnc(C(F)F)s4)nn(C)c23)CC1` [Compound 145] yielded a half-maximal inhibitory concentration (IC50) of less than 100 nM.
As to `CC(C)C(=O)N1C2CCC1CC(c1cc(S(=O)(=O)NC3(C#N)CC3)cc3c(-c4nnc(C(F)F)s4)nn(C)c13)C2` (centres unmarked) [Compound 127], the IC50 is less than 100 nM.
On the same count and under the same terms, the figure for `Cn1nc(-c2nnc(C(F)F)s2)c2cc(S(=O)(=O)NC3(C#N)CC3)cc(N3CC4CCC(C3)C4C(=O)N3CCCC3)c21` (centres unmarked) [Compound 113] is less than 100 nM.
Consider `C[C@H](O)C(=O)N1C2CCC1CN(c1cc(S(=O)(=O)NC3(C#N)CC3)cc3c(-c4nnc(C(F)F)s4)nn(C)c13)C2` [Compound 72], for which the 50% inhibitory concentration (IC50) is less than 100 nM.
Same read-out and setting: as for `Cn1nc(-c2nnc(C(F)F)s2)c2cc(S(=O)(=O)NC3(C#N)CC3)cc(C3=CCC(C(=O)N4CCCC4)CC3)c21` (centres unmarked) [Compound 137], the figure is less than 100 nM; as for `N#CC1(NS(=O)(=O)c2cc(C3=CC4CCC(C3)N4C(=O)C3CCCC3)c3c(c2)c(-c2nnc(C(F)F)s2)nn3CC(F)(F)F)CC1` (centres unmarked) [Compound 119], less than 100 nM; as for `CCn1nc(-c2nnc(C(F)F)s2)c2cc(S(=O)(=O)NC3(C)CC3)cc(N3CCN(C(=O)C(C)C)[C@@H](C)C3)c21` [Compound 92], less than 100 nM.
`CC(C)C(=O)N1[C@H](C)CN(c2cc(S(=O)(=O)NC3(C#N)CC3)cc3c(-c4nnc(C(F)F)s4)nn(CC(F)(F)F)c23)C[C@@H]1C` [Compound 104]: the IC50 was less than 100 nM.
Still for that read-out and setting: as for `CC(C)C(=O)N1C2C=C(c3cc(S(=O)(=O)NC4(C#N)CC4)cc4c(-c5nnc(C(F)F)s5)nn(C)c34)CC1CCC2` (centres unmarked) [Compound 83], the figure is less than 100 nM; as for `C[C@H](O)C(=O)N1C2C=C(c3cc(S(=O)(=O)NC4(C#N)CC4)cc4c(-c5nnc(C(F)F)s5)nn(C)c34)CC1CC2` (some centres unmarked) [Compound 80], less than 100 nM.
The same measure, in the same setting: the figure for `CC(C)C(=O)N1C2CCC1CN(c1cc(S(=O)(=O)NC3(C#N)CC3)cc3c(-c4nnc(C(F)F)s4)nn(CC(F)(F)F)c13)C2` [Compound 95] is less than 100 nM.
`Cn1nc(-c2nnc(C(F)F)s2)c2cc(S(=O)(=O)NC3(C#N)CC3)cc(N3CCC(C(C)(C)O)CC3)c21` [Compound 76] showed an IC50 of less than 100 nM.
